Measurements: patent US8841321B2, “Quinoline derivatives as antibacterial agents” (Janssen Pharmaceutica NV, priority 2005, dated 2014)
≈ marks a conversion by molar mass, not a printed value.

Experiments:
Test in all cases: Microtitre plate assay, IC90 determination
Format in all cases: cell-based
[1] = system: STA RMETH (methicilline resistant Staphylococcus aureus (MRSA), a clinical isolate from the University of Antwerp)
[2] = system: STA 29213 (Staphylococcus aureus (ATCC29213)); conditions: for IC90 (μg/ml) STA 29213: Staphylococcus aureus (ATCC29213); for IC90: Staphylococcus aureus, ATCC29213, Staphylococcus aureus (ATCC29213), read-out: IC90 (μg/ml) STA 29213
Description: (§1) The bacteria used in this study were grown overnight in flasks containing 100 ml Mueller-Hinton Broth (Becton Dickinson—cat. no. 275730) in sterile de-ionized water, with shaking, at 37° C. Stocks (0.5 ml/tube) were stored at −70° C. until use. Bacteria titrations were performed in microtiter plates and colony forming units (CFUs) were determined. In general, an inoculum level of approximately 100 CFUs was used for susceptibility testing.
(§2) Flat-bottom, sterile 96-well plastic microtiter plates were filled with 180 μl of sterile deionized water, supplemented with 0.25% BSA. Subsequently, stock solutions (7.8× final test concentration) of compounds were added in 45 μl volumes in column 2. Serial five-fold dilutions (45 μl in 180 μl) were made directly in the microtiter plates from column 2 to reach column 11. Untreated control samples with (column 1) and without (column 12) inoculum were included in each microtiter plate. Depending on the bacteria type, approximately 10 to 60 CFU per well of bacteria inoculum (100 TCID50), in a volume of 100 μl in 2.8× Mueller-Hinton broth medium, was added to the rows A to H, except column 12. The same volume of broth medium without inoculum was added to column 12 in row A to H. The cultures were incubated at 37° C. for 24 hours under a normal atmosphere (incubator with open air valve and continuous ventilation). At the end of incubation, one day after inoculation, the bacterial growth was quantitated fluorometrically. Therefore resazurin (0.6 mg/ml) was added in a volume of 20 μl to all wells 3 hours after inoculation, and the plates were re-incubated overnight. A change in colour from blue to pink indicated the growth of bacteria. The fluorescence was read in a computer-controlled fluorometer (Cytofluor Biosearch) at an excitation wavelength of 530 nm and an emission wavelength of 590 nm. The % growth inhibition achieved by the compounds was calculated according to standard methods. The IC90 (expressed in μg/ml) was defined as the 90% inhibitory concentration for bacterial growth.

[3] = system: SPN 6305 (Streptococcus pneumoniae (ATCC6305)); conditions: for IC90 (μg/ml) SPN 6305: Streptococcus pneumoniae (ATCC6305); for IC90: Streptococcus pneumoniae, ATCC6305, Streptococcus pneumoniae (ATCC6305), read-out: IC90 (μg/ml) SPN 6305
Description: as §1, §2

| Structure (SMILES) | IC90 (μg/ml) STA 29213 [2] [µg/mL] | IC90 (μg/ml) SPN 6305 [3] [µg/mL] | other results |
| --- | --- | --- | --- |
| CCN(CC)CCCCC(O)(c1ccc2ccccc2c1)C(c1ccccc1)c1cc2cc(Br)ccc2nc1OC (racemic) [Compound 85] | 1.93 (≈ 3.16 µM) | 1.93 (≈ 3.16 µM) | IC90 (μg/ml) STA RMETH [1]: 12.2 µg/mL (≈ 19.9 µM) |
| CCN(CC)CCCCC(O)(CCc1cccc2ccccc12)C(c1ccccc1)c1cc2cc(Br)ccc2nc1OC (stereo not drawn) [Compound 73] |  |  | IC90 ([1]; Staphylococcus aureus, MRSA, read-out: IC90 (μg/ml) STA RMETH): 2.55 µg/mL (≈ 3.99 µM); IC90 [2]: 2.02 µg/mL (≈ 3.16 µM); IC90 [3]: 2.55 µg/mL (≈ 3.99 µM) |
| COc1nc2ccc(Br)cc2cc1C(c1ccccc1)C(O)(CCCCN1CCCCC1)c1ccccc1 (single isomer, unassigned) [Compound 99] | 1.81 (≈ 3.16 µM) | 2.04 (≈ 3.56 µM) |  |
| CSc1nc2ccc(Br)cc2cc1C(c1ccccc1)C(O)(CCCCN(C)C)c1ccc2ccccc2c1 (single isomer, unassigned) [Compound 3] | 60.0 (≈ 100 µM) | 60.0 (≈ 100 µM) |  |
| COc1nc2ccc(Br)cc2cc1C(c1ccccc1)C(O)(CCCCN1CCN(C)CC1)c1ccccc1 (single isomer, unassigned) [Compound 108] | 8.31 (≈ 14.1 µM) | 2.34 (≈ 3.98 µM) |  |
| COc1nc2ccc(Br)cc2cc1C(c1ccccc1)C(O)(CCCCN1CCC(C)CC1)c1ccc2ccccc2c1 (racemic) [Compound 103] | 1.8 (≈ 2.82 µM) | 0.4 (≈ 0.627 µM) |  |
| COc1nc2ccccc2cc1C(c1ccc(Br)cc1)C(O)(CCCCN(C)C)c1ccc2ccccc2c1 (stereo not drawn) [Compound 66] | 1.85 (≈ 3.17 µM) | 1.85 (≈ 3.17 µM) |  |
| COc1nc2ccc(Br)cc2cc1C(c1ccccc1)C(O)(CCCCN1CCN(C)CC1)CCc1cccc2ccccc12 (single isomer, unassigned) [Compound 143] | 10.57 (≈ 15.9 µM) | 10.57 (≈ 15.9 µM) |  |
| COc1nc2ccc(Br)cc2cc1C(c1ccccc1)C(O)(CCCCN(C)C)CC(C)C (racemic) [Compound 118] | 8.14 (≈ 15.9 µM) | 5.14 (≈ 10 µM) |  |
| COc1nc2ccc(Br)cc2cc1C(c1ccccc1)C(O)(CCCCN(C)C(C)C)c1ccccc1 (single isomer, unassigned) [Compound 90] | 2.24 (≈ 3.99 µM) | 2.51 (≈ 4.47 µM) |  |
| COc1nc2ccc(Cl)cc2cc1C(c1ccccc1)C(O)(CCCCN(C)C)c1ccc2ccccc2c1 (racemic) [Compound 79] | 2.15 (≈ 3.99 µM) | 2.7 (≈ 5.01 µM) |  |
| COc1nc2ccc(Br)cc2cc1C(c1ccccc1)C(O)(CCCCN1CCCCC1)c1ccccc1 (racemic) [Compound 94] | 4.06 (≈ 7.08 µM) | 1.81 (≈ 3.16 µM) |  |
| COc1ccc(C(O)(CCCCN2CCCCC2)C(c2ccccc2)c2cc3cc(Br)ccc3nc2OC)cc1 (racemic) [Compound 97] | 1.91 (≈ 3.16 µM) | 1.91 (≈ 3.16 µM) |  |
| COc1nc2ccc(Br)cc2cc1C(c1ccccc1)C(O)(CCCCN1CCN(C)CC1)c1ccccc1 (single isomer, unassigned) [Compound 111] | 9.33 (≈ 15.9 µM) | 2.09 (≈ 3.55 µM) |  |
| COc1nc2ccc(Br)cc2cc1C(c1ccccc1)C(O)(CCCCN1CCN(C)CC1)c1ccccc1 (single isomer, unassigned) [Compound 109] | 9.33 (≈ 15.9 µM) | 5.25 (≈ 8.92 µM) |  |
| COc1nc2ccc(Br)cc2cc1C(c1ccccc1)C(O)(CCCCN(C)C)c1cc(F)cc(F)c1 (stereo not drawn) [Compound 12] | 45.2 (≈ 79.4 µM) | 11.4 (≈ 20 µM) |  |
| COc1nc2ccc(Br)cc2cc1C(c1ccccc1)C(O)(CCCCN(C)C)c1cccnc1 (stereo not drawn) [Compound 16] | 8.5 (≈ 15.9 µM) | 8.5 (≈ 15.9 µM) |  |
| COc1nc2ccc(Br)cc2cc1C(c1ccccc1)C(O)(CCCCN1CCCCC1)c1ccccc1 (single isomer, unassigned) [Compound 100] | 9.09 (≈ 15.8 µM) | 11.44 (≈ 19.9 µM) |  |
| COc1nc2ccccc2cc1C(c1ccc(Br)cc1)C(O)(CCCCN(C)C)c1ccc2ccccc2c1 (stereo not drawn) [Compound 63] |  |  | IC90 [2]: 1.85 µg/mL (≈ 3.17 µM); IC90 [3]: 2.32 µg/mL (≈ 3.98 µM) |
| COc1nc2ccc(Br)cc2cc1C(c1ccccc1)C(O)(CCCCN(C)C(C)C)c1ccccc1 (single isomer, unassigned) [Compound 88] | 11.2 (≈ 19.9 µM) | 6.3 (≈ 11.2 µM) |  |
| COc1nc2ccc(Br)cc2cc1C(c1ccccc1)C(O)(CCCCCN(C)C)c1ccc2ccccc2c1 (stereo not drawn) [Compound 58] | 4.2 (≈ 7.03 µM) | 1.9 (≈ 3.18 µM) |  |
| COc1nc2ccc(Br)cc2cc1C(c1ccccc1)C(O)(CCCCN1CCCCC1)c1ccccc1 (racemic) [Compound 95] | 10.2 (≈ 17.8 µM) | 2.28 (≈ 3.98 µM) |  |
| COc1nc2ccc(Br)cc2cc1C(c1ccccc1)C(O)(CCCCN1CCN(C)CC1)c1ccc2ccccc2c1 (single isomer, unassigned) [Compound 113] | 14.3 (≈ 22.4 µM) | 2.54 (≈ 3.98 µM) |  |

More lines, main results first:

| IC90 (μg/ml) STA 29213 [2] [µg/mL] | IC90 (μg/ml) SPN 6305 [3] [µg/mL] | Structure (SMILES) | other results |
| --- | --- | --- | --- |
| 2.03 (≈ 3.16 µM) | 2.28 (≈ 3.55 µM) | COc1nc2ccc(Br)cc2cc1C(c1ccc(Cl)c(Cl)c1)C(O)(CCCCN1CCCCC1)c1ccccc1 (single isomer, unassigned) [Compound 172] |  |
| 1.85 (≈ 3.17 µM) | 2.07 (≈ 3.55 µM) | COc1nc2ccccc2cc1C(c1cccc(Br)c1)C(O)(CCCCN(C)C)c1ccc2ccccc2c1 (single isomer, unassigned) [Compound 162] |  |
| 1.95 (≈ 3.16 µM) | 2.19 (≈ 3.55 µM) | COc1ccc(C(c2cc3cc(Br)ccc3nc2OC)C(O)(CCCCN2CCCCC2)c2ccc(C)cc2)cc1 (single isomer, unassigned) [Compound 167] |  |
| 1.7 (≈ 3.1 µM) | 1.7 (≈ 3.1 µM) | COc1nc2ccc(Br)cc2cc1C(c1ccccc1)C(O)(CCCCCN(C)C)c1ccccc1 (single isomer, unassigned) [Compound 155] |  |
| 22.07 (≈ 35.5 µM) | 4.94 (≈ 7.94 µM) | COc1nc2ccc(Br)cc2cc1C(c1ccc(Cl)cc1)C(O)(CCCCN1CCCCC1)c1ccc(C)cc1 (single isomer, unassigned) [Compound 171] |  |
| 1 (≈ 1.62 µM) | 0.31 (≈ 0.502 µM) | COc1nc2ccc(Br)cc2cc1C(c1cccc(Cl)c1)C(O)(CCCCN(C)C)c1ccc2ccccc2c1 (single isomer, unassigned) [Compound 163] |  |
| 2.02 (≈ 3.16 µM) |  | CN(C)CCCCC(O)(c1ccc2ccccc2c1)C(c1ccccc1)c1cc2cc(Br)ccc2nc1N1CCOCC1 (stereo not drawn) [Compound 178] | IC90 [3]: 2.27 µg/mL (≈ 3.55 µM) |
| 9.76 (≈ 15.9 µM) | 5.49 (≈ 8.92 µM) | COc1nc2ccc(Br)cc2cc1C(c1ccccc1)C(O)(CCCCN1CCCCC1)CCCc1ccccc1 (single isomer, unassigned) [Compound 146] |  |
| 1.85 (≈ 3.17 µM) | 2.07 (≈ 3.55 µM) | COc1nc2ccccc2cc1C(c1cccc(Br)c1)C(O)(CCCCN(C)C)c1ccc2ccccc2c1 (single isomer, unassigned) [Compound 160] |  |
| 4.52 (≈ 7.08 µM) | 4.52 (≈ 7.08 µM) | CN(C)CCCCC(O)(c1ccc2ccccc2c1)C(c1ccccc1)c1cc2cc(Br)ccc2nc1N1CCOCC1 (stereo not drawn) [Compound 177] |  |
| 1.91 (≈ 3.16 µM) | 1.91 (≈ 3.16 µM) | COc1ccc(C(c2cc3cc(Br)ccc3nc2OC)C(O)(CCCCN2CCCCC2)c2ccccc2)cc1 (single isomer, unassigned) [Compound 166] |  |
| 9.34 (≈ 15.8 µM) | 9.34 (≈ 15.8 µM) | COc1nc2ccc(Br)cc2cc1C(c1ccccc1)C(O)(CCCCc1ccccc1)CCCCN(C)C (single isomer, unassigned) [Compound 147] |  |
| 3.81 (≈ 6.31 µM) | 1.91 (≈ 3.16 µM) | COc1ccc(C(c2cc3cc(Br)ccc3nc2OC)C(O)(CCCCN2CCCCC2)c2ccccc2)cc1 (single isomer, unassigned) [Compound 165] |  |
| 1.84 (≈ 3.17 µM) | 2.06 (≈ 3.55 µM) | COc1nc2ccccc2cc1C(c1ccc(-c2ccccc2)cc1)C(O)(CCCCN(C)C)c1ccc2ccccc2c1 (stereo not drawn) [Compound 175] |  |
| 10.41 (≈ 15.8 µM) | 8.27 (≈ 12.6 µM) | COc1nc2ccc(Br)cc2cc1C(c1ccc(Cl)cc1)C(O)(CCCCN1CCN(C)CC1)CCC1CCCCC1 (single isomer, unassigned) [Compound 174] |  |
